Measured values published in US12403144B2, “HECT E3 ligase inhibitors and uses thereof” (IFOM FONDAZIONE ISTITUTO FIRC DI ONCOLOGIA MOLECOLARE, priority 2019, dated 2025).
Counter-ions that a name gives are not always drawn.

Tests used:
[1] = molecular target: T1, untagged HECT of NEDD4 wild-type (WT) (E3 ligase) (Homo sapiens, UniProt P46934); assay: In vitro ubiquitination assay TR-FRET based (self-ubiquitination of NEDD4); type: biochemical; conditions: for inhibition at 11 µM: pre-incubated for 1 hour, AUC of 120 minutes kinetic, read-out: percentages of inhibition (NEDD4)
T1 construct: untagged HECT of NEDD4 wild-type (WT) (E3 ligase); made in house
T1 sequence (P46934 519-900 isoform P46934-4 limits assumed): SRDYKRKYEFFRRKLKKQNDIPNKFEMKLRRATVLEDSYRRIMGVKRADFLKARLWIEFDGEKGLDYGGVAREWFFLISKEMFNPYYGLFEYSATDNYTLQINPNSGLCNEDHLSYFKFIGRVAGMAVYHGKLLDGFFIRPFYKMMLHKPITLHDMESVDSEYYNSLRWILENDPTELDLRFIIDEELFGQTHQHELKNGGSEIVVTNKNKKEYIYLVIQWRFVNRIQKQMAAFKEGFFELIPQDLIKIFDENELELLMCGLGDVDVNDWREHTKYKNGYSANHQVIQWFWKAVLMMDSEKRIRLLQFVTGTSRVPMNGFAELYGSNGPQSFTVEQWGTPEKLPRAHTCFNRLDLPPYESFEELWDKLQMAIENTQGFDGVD
How it was run: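 Mix of E1, His-UBE2D3 and untagged NEDD4 HECT (final 30, 350, 50 nM) with Eu-cryptate/Cy5/unlabelled ubiquitin in pH 7.6 Tris buffer, compounds (100–0.005 μM dilution series) pre-incubated 1 h, then started with ATP. 665/620 nm TR-FRET followed 120 min; % inhibition from AUC versus DMSO, no-ATP background.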

[2] = molecular target: T2, untagged HECT of ITCH (E3 ligase) (Homo sapiens, UniProt Q96J02); assay: In vitro ubiquitination assay TR-FRET based, ITCH; type: biochemical; conditions: read-out: percentage of inhibition (ITCH)
T2 construct: using untagged HECT of ITCH (E3 ligase) instead of untagged HECT of NEDD4 wild-type (WT) (E3 ligase); made in house
T2 sequence (Q96J02 569-903 limits assumed): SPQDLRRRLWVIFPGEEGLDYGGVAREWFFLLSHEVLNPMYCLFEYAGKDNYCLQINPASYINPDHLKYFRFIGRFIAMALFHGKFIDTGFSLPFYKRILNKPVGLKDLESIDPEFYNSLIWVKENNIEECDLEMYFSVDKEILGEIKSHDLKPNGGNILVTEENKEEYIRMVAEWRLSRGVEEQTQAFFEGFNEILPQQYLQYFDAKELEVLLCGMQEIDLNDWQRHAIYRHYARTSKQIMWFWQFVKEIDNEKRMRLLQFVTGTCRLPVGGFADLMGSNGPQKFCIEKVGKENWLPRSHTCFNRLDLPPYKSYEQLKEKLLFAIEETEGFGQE
Description: To determine the selectivity of identified NEDD4 inhibitors, it was quantitatively measured the self-ubiquitination process of the E3 HECT ligase belonging to NEDD4 family such as NEDD4L, HECW2 and ITCH in presence or not of some compounds such as 5, 9, 12, 29, 42, 45, 56, 58, 61, 77, 78, 85 and 94 employing TR-FRET based assays.
The assay was performed as described above in the paragraph titled “In vitro ubiquitination assay TR-FRET based” under the heading “2.1. NEDD4 UBIQUITINATION ASSAYS” using untagged HECT of ITCH (E3 ligase) instead of untagged HECT of NEDD4 wild-type (WT) (E3 ligase). In this case, final E1, E2 and E3 concentrations in the assay buffer (Tris-HCl pH 7.6 25 mM, NaCl 100 mM, MgCl2 5 mM and Tween 0.01%) were 30, 350 and 60 nanomolars, respectively. Untagged HECT of ITCH (E3 ligase) enzyme was produced and purified as reported in E. Maspero et al. Methods Mol Biol. 1449:153-60 (2016) and in E. Maspero et al. EMBO Reports 12:342-349(2011).

For CN(C/C=C/C(=O)OCCOCCOCCOCCNC(=O)CCCC[C@@H]1SC[C@@H]2NC(=O)N[C@@H]21)CCCCN1c2ccccc2CCc2ccc(Cl)cc21 [Compound 94, 2-[2-(2-{2-[5-((3aS,4S,6aR)-2-Oxo-hexahydro-thieno[3,4-d]imidazol-4-yl)-pentanoylamino]-ethoxy}-ethoxy)-ethoxy]-ethyl (E)-4-{[4-(3-chloro-10,11-dihydro-dibenzo[b,f]azepin-5-yl)-butyl]-methyl-amino}but-2-enoate], the inhibition at 11 µM [1] was > 50% and the inhibition at 11 µM [2] was < 15%.

In the case of CCOC(=O)/C=C/CNCCCCN1c2cc(Cl)ccc2C(=O)N(Cc2ccccc2)c2ccccc21 [Compound 56, Ethyl (E)-4-((4-(10-benzyl-3-chloro-11-oxo-10,11-dihydro-5H-dibenzo[b,e][1,4]diazepin-5-yl)butyl)amino)but-2-enoate maleate], the inhibition at 11 µM [1] is reported as > 50% and the inhibition at 11 µM [2] is reported as < 15%.

COC(=O)/C=C/CN(C)CCCCN1c2cc(Cl)ccc2C(=O)N(Cc2ccccc2)c2ccccc21 [Compound 58, Methyl (E)-4-{[4-(10-benzyl-3-chloro-11-oxo-10,11-dihydro-5H-dibenzo[b,e][1,4]diazepin-5-yl)butyl](methyl)amino}but-2-enoate maleate] was tested, and the inhibition at 11 µM [1] was > 50% and the inhibition at 11 µM [2] was < 15%.

For CONC(=O)/C=C/CN(C)CCCCN1c2ccccc2CCc2ccc(Cl)cc21 [Compound 85, (E)-4-[4-(3-Chloro-10,11-dihydro-5H-dibenzo[b,f]azepin-5-yl)butyl-methyl-amino]-N-methoxy-but-2-enamide maleate], the inhibition at 11 µM [1] was > 50% and the inhibition at 11 µM [2] was < 25%.

For CCOC(=O)/C=C/CNCCCCN1c2ccccc2CCc2ccc(Cl)cc21.O=C(O)/C=C\C(=O)O [Compound 12, Ethyl (E)-4-[4-(3-chloro-10,11-dihydro-5H-dibenzo[b,f]azepin-5-yl)butylamino]but-2-enoate maleate], the “inhibition of enzymatic activity, TR-FRET kinetic assay (% of signal/background during the time)” value ([1]; FIG. 1, HECT NEDD4 WT, concentrations indicated in the figure) was “dose dependent inhibition of enzymatic activity”, the inhibition at 11 µM [1] was > 50% and the inhibition at 11 µM [2] was < 5%.

CCOC(=O)/C=C/CNCCCCN1c2ccccc2C(=O)N(Cc2ccccc2)c2ccc(Cl)cc21 [Compound 45, Ethyl (E)-4-{[4-(10-benzyl-7-chloro-11-oxo-10,11-dihydro-5H-dibenzo[b,e][1,4]diazepin-5-yl)butyl]amino}but-2-enoate maleate] was tested, and the inhibition at 11 µM [1] was > 50% and the inhibition at 11 µM [2] was < 5%.

CCOC(=O)/C=C/CNCCCCN1c2cc(Cl)ccc2C(=O)N(C)c2ccccc21 [Compound 42, Ethyl (E)-4-{[4-(3-chloro-10-methyl-11-oxo-10,11-dihydro-5H-dibenzo[b,e][1,4]diazepin-5-yl)butyl]amino}but-2-enoate maleate] was tested, and the inhibition at 11 µM [1] was > 50% and the inhibition at 11 µM [2] was < 15%.

For CONC(=O)/C=C/CNCCCCN1c2ccccc2CCc2ccc(Cl)cc21 [Compound 78, (E)-4-[4-(3-Chloro-10,11-dihydro-5H-dibenzo[b,f]azepin-5-yl)butylamino]-N-methoxy-but-2-enamide maleate], the inhibition at 11 µM [1] was > 50% and the inhibition at 11 µM [2] was < 20%.

CCOC(=O)/C=C/CNCCCCN1c2ccccc2C(=O)N(C)c2ccc(Cl)cc21 [Compound 29, Ethyl (E)-4-{[4-(7-chloro-10-methyl-11-oxo-10,11-dihydro-5H-dibenzo[b,e][1,4]diazepin-5-yl)butyl]amino}but-2-enoate maleate] was tested, and the inhibition at 11 µM [1] was > 50% and the inhibition at 11 µM [2] was < 5%.

With CN(C/C=C/C#N)CCCCN1c2cc(Cl)ccc2C(=O)N(Cc2ccccc2)c2ccccc21 [Compound 61, (E)-4-{[4-(10-benzyl-3-chloro-11-oxo-10,11-dihydro-5H-dibenzo[b,e][1,4]diazepin-5-yl)butyl](methyl)amino}but-2-enenitrile maleate] the inhibition at 11 µM [1] was > 50% and the inhibition at 11 µM [2] was < 5%.

For C#CCON(C)C(=O)/C=C/CN(C)CCCCN1c2ccccc2CCc2ccc(Cl)cc21 [Compound 77, (E)-4-[4-(3-Chloro-10,11-dihydro-5H-dibenzo[b,f]azepin-5-yl)butyl-methyl-amino]-N-methyl-N-prop-2-ynoxy-but-2-enamide maleate], the inhibition at 11 µM [1] was > 50% and the inhibition at 11 µM [2] was < 5%.

In the case of CON(C)C(=O)/C=C/CN(C)CCCCN1c2ccccc2CCc2ccc(Cl)cc21 [Compound 9, (E)-4-[4-(3-Chloro-10,11-dihydro-5H-dibenzo[b,f]azepin-5-yl)butyl-methyl-amino]-N-methoxy-N-methyl-but-2-enamide], the inhibition at 11 µM [1] is reported as > 50% and the inhibition at 11 µM [2] is reported as < 20%.

In the case of CCOC(=O)/C=C/CCNCCCN1c2ccccc2CCc2ccc(Cl)cc21 [Compound 5, Ethyl (E)-5-[3-(3-chloro-10,11-dihydro-5H-dibenzo[b,f]azepin-5-yl)propylamino]pent-2-enoate maleate], the inhibition at 11 µM [1] is reported as > 50% and the inhibition at 11 µM [2] is reported as < 15%.
